The target in this experiment is T1, TPO receptor (Homo sapiens, UniProt P40238).
T1 construct: expressed in transfected cells; host or cells: murine BaF3 cells (TPO-responsive line)
T1 sequence (P40238 26-635): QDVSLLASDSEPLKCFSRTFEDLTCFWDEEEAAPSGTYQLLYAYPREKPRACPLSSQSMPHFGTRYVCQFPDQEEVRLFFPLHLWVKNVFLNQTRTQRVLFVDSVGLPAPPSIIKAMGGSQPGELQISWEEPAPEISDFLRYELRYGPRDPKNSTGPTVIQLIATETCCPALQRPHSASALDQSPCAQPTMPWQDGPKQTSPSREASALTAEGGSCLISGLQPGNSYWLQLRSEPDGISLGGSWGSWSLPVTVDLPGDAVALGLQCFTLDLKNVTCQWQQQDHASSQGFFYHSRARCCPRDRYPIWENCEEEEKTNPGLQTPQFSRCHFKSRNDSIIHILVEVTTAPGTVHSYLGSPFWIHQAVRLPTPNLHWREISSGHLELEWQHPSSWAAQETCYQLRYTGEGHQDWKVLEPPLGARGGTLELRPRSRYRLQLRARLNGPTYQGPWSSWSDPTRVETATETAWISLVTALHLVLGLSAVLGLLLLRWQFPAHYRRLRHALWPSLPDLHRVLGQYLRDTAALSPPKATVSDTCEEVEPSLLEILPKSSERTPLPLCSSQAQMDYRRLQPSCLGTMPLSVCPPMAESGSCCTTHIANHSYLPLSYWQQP
In words: Luciferase assay in TPO-responsive BaF3 cell line. The experiment is classed as cell-based, murine. As for the experimental part:
Compounds of the present invention were tested for potency as mimetics of the TPO receptor in a Luciferase assay such as described in Lamb, et al., Nucleic Acids Research 23: 3283-3289 (1995) and Seidel, et al., Proc. Natl. Acad. Sci., USA 92: 3041-3045 (1995) by substituting a TPO-responsive BaF3 cell line (Vigon et al. Proc. Natl. Acad. Sci. USA 1992, 89, 5640-5644) for the HepG2 cells utilized therein. The murine BaF3 cells express TPO receptors and closely match the pattern of STAT (signal transducers and activators of transcription) activation observed in primary murine and human bone marrow cells.

Consider `CC1=NN(c2ccc(C(=O)O)cc2)C(=O)C1N=NC1C(=O)N(c2ccc(C)c(C)c2)N=C1C` (centres unmarked) [Example 1, 4-[1-(3,4-Dimethylphenyl)-3-methyl-4-(3-methyl-5-oxo-2-pyrazolin-4-ylazo)-5-oxo-2-pyrazolin-1-yl]benzoic Acid], for which, for the setting “TPO-responsive BaF3 cells”, the half-maximal effective concentration (EC50) came out at 720 nM. Also, the “activity, % TPO” value (relative to TPO) is 56 % TPO.

As usually defined, the EC50 is the concentration that produces a half-maximal response. A low value points to higher potency in that assay.

Source of the values: patent US6552008B1, “Thrombopoietin mimetics” (SmithKline Beecham Corporation, priority 1999, dated 2003).
